Assay results taken from paper PMC6070903 (Viruses, 2018).
≈ marks a conversion by molar mass, not a printed value.

Experiments:
B. cereus ATCC 11778 = assay: Broth microdilution MIC; type: cell-based; conditions: Bacillus cereus, ATCC11778, 24 h, 35 ± 2 °C
E. coli ATCC 25922 = assay: Broth microdilution MIC; type: cell-based; conditions: Escherichia coli, ATCC25922, 24 h, 35 ± 2 °C
S. aureus ATCC 29213 = assay: Broth microdilution MIC; type: cell-based; conditions: Staphylococcus aureus, ATCC29213, 24 h, 35 ± 2 °C
P. aeruginosa ATCC 27853 = assay: Broth microdilution MIC; type: cell-based; conditions: Pseudomonas aeruginosa, ATCC27853, 24 h, 35 ± 2 °C
[1] = system: HL-60 (promyelocytic leukemia) cells; design: method as in earlier work; conditions: read-out: IC50 against HL-60 cells; cited from earlier work
C. albicans ATCC 10231 = assay: Broth microdilution MIC; type: cell-based; conditions: Candida albicans, ATCC10231, 48 h, 25 ± 2 °C
THP-1 cells [2] = assay: Cell viability of THP-1 cells, WST-1 assay; type: cell-based; conditions: Homo sapiens, WST-1, 24 h, 0.25 to 20 μM, read-out: IC50 for the THP-1 cell line (viability)
NF-κB/AP-1 = NF-κB/AP-1 activity, SEAP reporter in LPS-stimulated THP-1-XBlue-MD2-CD14 cells; type: cell-based, human; conditions: 5 μM, LPS 1 μg/mL, 24 h, vs vehicle
[3] = system: HSV-2 (clinical isolates, acyclovir-sensitive); assay: Anti-HSV-2 titer reduction assay in Vero cells; type: cell-based, Herpes simplex virus; conditions: for Selectivity Index CC50/EC50: HSV-2, Vero CC50 / EC50; for EC50: Human alphaherpesvirus 2, HSV-2, titer reduction, 48 h, Vero cells
in vitro = conditions: African green monkey
THP-1 cells [4] = assay: Pyocyanin-triggered ROS production in THP-1 cells, DCFH-DA; type: cell-based, human; conditions: 5 μM, pyocyanin 100 μM, THP-1 monocytes
[5] = system: Gram-positive bacteria S. aureus and B. cereus; assay: Broth microdilution MIC, summary for both Gram-positive strains; type: cell-based; conditions: S. aureus and B. cereus together
HSV-1 strain KOS = assay: Anti-HSV-1 plaque reduction assay in Vero cells; type: cell-based, Herpes simplex virus; conditions: for Selectivity Index CC50/IC50: HSV-1, Vero CC50 / IC50; for IC50: Human alphaherpesvirus 1, HSV-1, plaque reduction, 72 h, Vero cells
IL-1β = assay: LPS-stimulated IL-1β secretion in PMA-differentiated THP-1 macrophages, ELISA; type: cell-based, human; conditions: 5 μM, LPS 1 μg/mL, 24 h
TNF-α = assay: LPS-stimulated TNF-α secretion in PMA-differentiated THP-1 macrophages, ELISA; type: cell-based, human; conditions: 5 μM, LPS 1 μg/mL, 24 h

Row | SMILES | MIC (B. cereus ATCC 11778) [µg/mL] | MIC (E. coli ATCC 25922) [µg/mL] | MIC (S. aureus ATCC 29213) [µg/mL] | MIC (P. aeruginosa ATCC 27853) [µg/mL] | IC50 [1] [µM] | MIC (C. albicans ATCC 10231) [µg/mL] | IC50 (THP-1 cells [2]) [µM] | Effect on NF-κB/AP-1 activity (NF-κB/AP-1) | Selectivity Index CC50/EC50 [3] | EC50 [3] [µg/mL] | CC50 at 84 h (in vitro) [µg/mL] | Effect on production of ROS (THP-1 cells [4]) | MIC range against both Gram-positive strains [5] [µg/mL] | Selectivity Index CC50/IC50 (HSV-1 strain KOS) | IC50 (HSV-1 strain KOS) [µg/mL] | Effect on LPS-stimulated secretion of IL-1β (IL-1β) | Effect on LPS-stimulated secretion of TNF-α (TNF-α)
1 | CN(C)[C@@H]1C(O)=C(C(N)=O)C(=O)[C@@]2(O)C(O)=C3C(=O)c4c(O)cccc4[C@@](C)(O)[C@H]3C[C@@H]12 [tetracycline, reference compound] | 0.03 (≈ 0.0675 µM) | 1 (≈ 2.25 µM) | 0.125 (≈ 0.281 µM) | 16 (≈ 36 µM) | – | – | – | – | – | – | – | – | – | – | – | – | –
2 | C=C(C)C1CCC(=C)C2(O)CCC3(C)C(CC(C)C)c4c(O)c(C=O)c(O)c(C=O)c4OC3C12 (centres unmarked) [Compound 4, Eucalyptal A] | 32 (≈ 68.3 µM) | > 128 | > 128 | > 128 | 1.7 | > 128 | 1.2 | – | – | – | – | – | – | – | – | – | –
3 | COc1ccc(-c2cc(=O)c3c(O)c(C)c(OC)cc3o2)cc1 [Compound 9, 8-Demethyleucalyptin] | > 64 | > 64 | > 64 | > 64 | – | > 64 | – | reduce the activation of NF-κB/AP-1 | – | – | – | – | – | – | – | – | –
4 | C=C1CC[C@H](C(C)(C)O)/C=C/[C@@H](C)CCC1=O [Compound 1, Litseagermacrane] | 64 (≈ 271 µM) | > 64 | > 64 | > 64 | – | > 64 | – | – | >168.0 | 1.25 ± 0.2 (≈ 5.29 µM) | > 210 | no significant antioxidant potential | – | – | – | – | –
5 | Cc1c(O)c(C=O)c(O)c(C(=O)CC(C)C)c1O [Compound 2, Grandinol] | 16 (≈ 63.4 µM) | > 64 | 16 (≈ 63.4 µM) | > 64 | – | > 64 | – | – | – | – | > 210 | significantly increased the production of ROS | 8 to 32 | >170.7 | 1.23 ± 0.13 (≈ 4.88 µM) | – | –
6 | Clc1ccc(C(Cn2ccnc2)OCc2ccsc2Cl)c(Cl)c1 (centres unmarked) [tioconazole, reference compound] | – | – | – | – | – | 4 (≈ 10.3 µM) | – | – | – | – | – | – | – | – | – | – | –
7 | Cc1cc(=O)c2c(O)cc(O[C@@H]3O[C@H](COC(=O)C4=CC[C@H](C(C)(C)O)CC4)[C@@H](O)[C@H](O)[C@H]3O)cc2o1 [Compound 5, Cypellocarpin C] | > 128 | > 128 | > 128 | > 128 | – | > 128 | – | – | >287.7 | 0.73 ± 0.11 (≈ 1.4 µM) | > 210 | – | – | – | – | – | –
8 | COc1ccc(-c2cc(=O)c3c(O)c(C)c(OC)c(C)c3o2)cc1 [Compound 8, Eucalyptin] | > 64 | > 64 | > 64 | > 64 | – | > 64 | – | – | – | – | – | – | – | – | – | increased the secretion of the IL-1β | Neither compound 8 nor 12 showed any influence on the secretion of TNF-α
9 | Nc1nc2c(ncn2COCCO)c(=O)[nH]1 [Acyclovir, acyclovir, reference compound] | – | – | – | – | – | – | – | – | – | 1.75 ± 0.33 (≈ 7.77 µM) | > 210 | – | – | – | 1.92 ± 0.23 (≈ 8.53 µM) | – | –
10 | C[C@H]1[C@H](C)CC[C@]2(C(=O)O)CC[C@]3(C)C(=CC[C@@H]4[C@@]5(C)CC[C@H](O)C(C)(C)[C@@H]5CC[C@]43C)[C@H]12 [Compound 11, Ursolic acid] | 32 (≈ 70.1 µM) | > 128 | 128 (≈ 280 µM) | > 128 | – | > 128 | – | – | – | – | – | – | – | – | – | – | –
11 | COc1c(C)c(O)c2c(=O)cc(-c3ccc(O)cc3)oc2c1C [Compound 6, Sideroxylin] | 64 (≈ 205 µM) | > 64 | > 64 | > 64 | – | > 64 | – | enhance it | – | – | > 210 | – | – | >145.8 | 1.44 ± 0.14 (≈ 4.61 µM) | – | –
12 | COc1cc2oc(-c3ccc(O)cc3)cc(=O)c2c(O)c1C [Compound 7, 8-Demethylsideroxylin] | 128 (≈ 429 µM) | > 128 | > 128 | > 128 | – | > 128 | – | enhance it | – | – | – | – | – | – | – | – | –
13 | CCC(C)C(=O)c1c(O)cc(OC)c(C)c1O (centres unmarked) [Compound 3, Pulverulentone B] | 8 (≈ 33.6 µM) | > 32 | 32 (≈ 134 µM) | > 32 | – | > 32 | – | – | – | – | – | no significant antioxidant potential | 8 to 32 | – | – | – | –
14 | COc1cc(/C=C/C(=O)O[C@H]2CC[C@]3(C)[C@H]4C=C[C@]56OC(=O)[C@@]7(CC[C@@H](C)[C@H](C)[C@H]75)CC[C@@]6(C)[C@]4(C)CC[C@H]3C2(C)C)ccc1O [Compound 12, Tereticornate A] | > 32 | > 32 | > 32 | > 32 | – | > 32 | – | statistically significant inhibitory potential, stronger than that of prednisone | – | – | > 210 | – | – | >218.8 | 0.96 ± 0.12 (≈ 1.52 µM) | attenuates the LPS-stimulated secretion of IL-1β | Neither compound 8 nor 12 showed any influence on the secretion of TNF-α
15 | c1cc2c(cc1[C@H]1OC[C@H]3[C@@H]1CO[C@@H]3c1ccc3c(c1)OCO3)OCO2 [Compound 10, Sesamin] | > 32 | > 32 | > 32 | > 32 | – | > 32 | – | – | – | – | – | – | – | – | – | – | –
